The text below walks through data of US6229016A, “Method for treating tumors using 2-aryl-naphthyridin-4-ones” (priority 2000, dated 2001).

Molecules are shown by their SMILES.

By GI50 is commonly meant the concentration at which growth is held to half of that of the control.

Common to all, as to type: cell-based
For experiment [1], the system named is NCI's 60 human tumor cell line. Nature of the experiment: NCI 60 human tumor cell line in vitro screen (average / whole panel). The note with it: calculated from all cell lines tested, molar concentrations, read-out: average log GI50 (converted).
Experiment [2] has as its system HL-60(TB) leukemia cell line. Nature of the experiment: cells. The following applies: Homo sapiens; HL-60(TB); read-out: Cytotoxicity log GI50 (converted).
In experiment [3] the test system is NCI-H460 non-small cell lung cancer cell line. Nature of the experiment: NCI in vitro screen, non-small cell lung cancer NCI-H460. The following applies: Homo sapiens, read-out: Cytotoxicity log GI50 (converted).
Experiment [4] concerns HCT-116 colon cancer cell line. Nature of the experiment: NCI in vitro screen, colon cancer HCT-116. The following applies: Homo sapiens; HCT-1.16 (head); HCT-116 (footnote); read-out: Cytotoxicity log GI50 (converted).
The subject of experiment [5] is SF-295 CNS cancer cell line. Description: NCI in vitro screen, CNS cancer SF-295. The note with it: Homo sapiens, read-out: Cytotoxicity log GI50 (converted).
Experiment [6] relates to U-251 CNS cancer cell line. Nature of the experiment: NCI in vitro screen, CNS cancer U-251. The note with it: Homo sapiens, read-out: Cytotoxicity log GI50 (converted).
For experiment [7], the system named is SK-MEL-5 melanoma cell line. Nature of the experiment: NCI in vitro screen, melanoma SK-MEL-5. The following applies: Homo sapiens, read-out: Cytotoxicity log GI50 (converted). From the text:
(§1) Compounds 41-51 and 53-68 were submitted to NCI and assayed in the NCI's in vitro disease-oriented antitumor screen, which involves determination of a test compound's effects on the growth of approximately 60 human tumor cell lines. See, M. R. Boyd, et al. In Cancer: Principles and Practice of Oncology Updates; De Vita, V. T., Hellman, S., Rosenberg, S. A., Eds; J. B. Lippincoft: Philadelphia, pp 1-12 (1989); and A. Monks, et al. J. Natl. Cancer Inst. 83:757 (1991). These lines include leukemia, non-small cell lung, colon, central nervous system (CNS), melanoma, ovarian, renal, prostate, and breast cancers.
(§2) Compounds 29'-51' were submitted to NCI and assayed in the NCI's in vitro disease-oriented antitumor screen, using the techniques described in Example 5. This assay involves determinations of a test agent's effect on growth parameters against a panel of approximately 60 human tumor cell lines, derived largely from solid tumors, including non-small cell lung, colon, central nervous system, renal, ovarian, prostate, and breast cancers, plus a few leukemia cell lines. The cytotoxic effects of each compound are obtained as GI50 or […] values, which represent the molar drug concentrations required to cause half growth inhibition and total growth inhibition, respectively. The results are expressed for each cell line as average log GI50 values in Table 4, as log GI50 values in Table 5, and as log TGI values and average log TGI values in Table 6.

Experiment [8] concerns OVCAR-3 ovarian cancer cell line. Nature of the experiment: NCI in vitro screen, ovarian cancer OVCAR-3. The following applies: Homo sapiens, read-out: Cytotoxicity log GI50 (converted).
In experiment [9] the test system is 786-0 renal cancer cell line. Nature of the experiment: NCI in vitro screen, renal cancer 786-0. The following applies: Homo sapiens, read-out: Cytotoxicity log GI50 (converted).
Excerpt: as §1, §2

The subject of experiment [10] is PC-3 prostate cancer cell line. Description: NCI in vitro screen, prostate cancer PC-3. The note with it: Homo sapiens, read-out: Cytotoxicity log GI50 (converted).
Excerpt: as §1, §2

Experiment [11] has as its system MDA-MB-435 breast cancer cell line. Nature of the experiment: NCI in vitro screen, breast cancer MDA-MB-435. The following applies: Homo sapiens, read-out: Cytotoxicity log GI50 (converted).
The test system of experiment [12] is MDA-N breast cancer cell line. Nature of the experiment: NCI in vitro screen, breast cancer MDA-N. The note with it: Homo sapiens, read-out: Cytotoxicity log GI50 (converted).
Excerpt: as §1, §2

Turning to `COc1ccccc1-c1cc(=O)c2c(C)ccnc2[nH]1` [Compound 40], the GI50 in experiment [1] is 2.82 µM; in [2], 20.9 µM; in [3], 24 µM; in experiment [4], 7.59 µM; in experiment [5], 23.4 µM; in [6], 35.5 µM. For the same molecule, the GI50 in experiment [7] is 22.4 µM; in [8] it was 12.9 µM; in experiment [9], 60.3 µM; in experiment [10], 20.9 µM; in experiment [11], 6.46 µM; in experiment [12] it was 8.32 µM.
On to `COc1ccccc1-c1cc(=O)c2cc(C)cnc2[nH]1` [Compound 41], for which the GI50 is 31.6 µM in [1]; 9.55 µM in [2]; 32.4 µM in [3]; 42.7 µM in experiment [4]; 30.9 µM in experiment [5]; 27.5 µM in experiment [6]. The GI50 in experiment [7] was 20.4 µM; in experiment [8], 19.5 µM; in [9] it was 41.7 µM; in [10], 26.9 µM; in [11], 3.02 µM; in [12], 4.47 µM.
Turning to `COc1ccccc1-c1cc(=O)c2ccc(C)nc2[nH]1` [Compound 42], the GI50 in experiment [1] is 79.4 µM; in experiment [2], 74.1 µM; in experiment [3], 97.7 µM; in experiment [4], 38 µM; in experiment [5] it was greater than 100 µM; in experiment [6], greater than 100 µM. Moreover, the 50% growth inhibitory concentration (GI50) is 51.3 µM in experiment [7]; greater than 100 µM in experiment [8]; greater than 100 µM in experiment [9]; greater than 100 µM in experiment [10]; 21.9 µM in experiment [11]; 20 µM in experiment [12].
Take `Cc1ccnc2c1C(=O)CC(c1cccc3ccccc13)=N2` [Compound 43, 2-(α-Naphthyl)-5-methyl-1,8-naphthyridin-4-one]: the GI50 in [1] is 0.0355 µM; in experiment [2] it was less than 0.01 µM; in experiment [3] it was less than 0.01 µM; in [4], less than 0.01 µM; in [5] it was 0.0107 µM; in experiment [6], less than 0.01 µM. In addition, the concentration for 50% growth inhibition (GI50) was less than 0.01 µM in [7]; less than 0.01 µM in [8]; 0.012 µM in [9]; 0.02 µM in experiment [10]; less than 0.01 µM in experiment [11]; less than 0.01 µM in [12].
As for `COc1ccccc1-c1cc(=O)c2c(C)cc(C)nc2[nH]1` [Compound 43], the GI50 is 57.5 µM in experiment [1]; 30.2 µM in [2]; 70.8 µM in experiment [3]; 74.1 µM in experiment [4]; 53.7 µM in [5]; greater than 100 µM in [6]. In addition, the GI50 was 33.9 µM in experiment [7]; 64.6 µM in experiment [8]; greater than 100 µM in experiment [9]; 47.9 µM in experiment [10]; 32.4 µM in experiment [11]; 33.1 µM in experiment [12].
For the molecule `Cc1cnc2c(c1)C(=O)CC(c1cccc3ccccc13)=N2` [Compound 44, 2-(α-Naphthyl)-6-methyl-1,8-naphthyridin-4-one], the GI50 in [1] is 0.0191 µM; in [2], less than 0.01 µM; in experiment [3], less than 0.01 µM; in experiment [4] it was less than 0.01 µM; in experiment [5], less than 0.01 µM; in experiment [6], less than 0.01 µM. The GI50 in experiment [7], in experiment [8], in experiment [9], in experiment [10], in experiment [11] and in experiment [12] was less than 0.01 µM in each case.
Take `Cc1ccc2c(n1)N=C(c1cccc3ccccc13)CC2=O` [Compound 45, 2-(α-Naphthyl)-7-methyl-1,8-naphthyridin-4-one]: the GI50 in experiment [1] was 0.0661 µM; in experiment [2], less than 0.01 µM; in experiment [3], 0.0174 µM; in [4], less than 0.01 µM; in experiment [5] it was 0.024 µM; in [6], 0.0155 µM. Further, the GI50 is 0.0138 µM in experiment [7]; less than 0.01 µM in experiment [8]; 6.03 µM in experiment [9]; 0.0302 µM in experiment [10]; less than 0.01 µM in experiment [11]; less than 0.01 µM in [12].
